ChEMBL document CHEMBL5046259, “Cannabinoids Block Cellular Entry of SARS-CoV-2 and the Emerging Variants” (J Nat Prod, 2022)
Values after ≈ are worked out from the molar mass of the structure shown. Active and inactive are the calls of the source. No cut-off for these calls is given here.

Columns and labels:
Vero C1008 = assay: Cytotoxicity against African green monkey Vero E6 cells by resazurin assay; assay type: toxicity, cell-based; conditions: chlorocebus sabaeus
Caco-2 = assay: Cytotoxicity against human Caco-2 cells by resazurin assay; assay type: toxicity, cell-based
SARS-CoV-2 [1] = assay: Antiviral activity against SARS-CoV-2 infected in African green monkey Vero E6 cells assessed as inhibition of viral entry at 25 ug/ml measured after 24 hrs post infection by fluorescence microscopy; assay type: functional, organism-based; conditions: Severe acute respiratory syndrome coronavirus 2, dose 25.0 µg/ml
HEK-293T = assay: Cytotoxicity against human HEK293T cells overexpressing ACE2 by resazurin assay; assay type: toxicity, cell-based
SARS-CoV-2 [2] = assay: Antiviral activity against SARS-CoV-2 isolate USA-WA1/2020 strain infected in African green monkey Vero E6 cells assessed as inhibition of viral entry incubated for 1 hr prior to infection and measured after 48 hrs by Focus forming assay; assay type: functional, organism-based; conditions: Severe acute respiratory syndrome coronavirus 2, USA-WA1/2020, Vero C1008

Row | Structure (SMILES) | Activity (Vero C1008) | Activity (Caco-2) | Activity (SARS-CoV-2 [1]) | Activity (HEK-293T) | IC50 (SARS-CoV-2 [2])
1 | C=C(C)[C@@H]1CCC(C)=C[C@H]1c1c(O)cc(CCCCC)c(C(=O)O)c1O [CANNABIDIOLIC ACID] | Non-Toxic | Non-Toxic | Active | Non-Toxic | 24 µg/mL (≈ 66.9 µM)
2 | CCCCCc1cc(O)c(C/C=C(\C)CCC=C(C)C)c(O)c1C(=O)O [CANNABIGEROLIC ACID] | Non-Toxic | Non-Toxic | Active | Non-Toxic | 37 µg/mL (≈ 103 µM)
